Results reported in patent publication US20080194883A1, “Menthol-Containing Solids Composition” (SYMRISE GMBH & CO. KG, priority 2005, published 2008).

What was measured:
[1] = Solution test: time taken for complete dissolving in ethanol/water; type: physicochemical; details: 5 g in 95 g ethanol/water (equal weight contents), 20° C., stirred, optical determination
Procedure: The various rates of solution of a solids composition according to the invention according to Example 1a above and forms of I-menthol which are not according to the invention were compared.
For this, in each case 5 g I-menthol or 5 g of the I-menthol-containing solids composition according to the invention according to Example 1a were added to 95 g of a mixture, temperature-controlled at a constant 20° C., of equal weight contents of ethanol and water and the time taken for complete dissolving (optical determination) of the menthol and of the menthol-containing solids composition was determined.
The particular solution test was carried out in a glass beaker having a diameter of 5 cm and a filling height of 7 cm. The contents of the glass beaker were in each case stirred with a 4 cm long magnetic stirring fish at a magnetic stirrer speed of 4 revolutions per second during the solution test. The temperature was monitored with a Pt-100 thermometer, which was immersed 5 cm deep into the liquid, was placed at a distance of 1 cm from the glass beaker wall and simultaneously served as a baffle.
The size of the crystals here corresponded to the typical (commercially available) crystal geometry of natural I-menthol.

[2] = Storage test for caking or formation of lumps (optical and mechanical flowability check); type: physicochemical; details: storage times of more than three months
Procedure: In this context, a solid menthol component consisting of bodies in the form of crystals or pressed pieces was employed. The menthol-containing solids composition according to the invention which was investigated remained convenient and reliable to handle and pourable, flowable and meterable over the entire observation period.
This menthol-containing solids composition was packed in a plastic bag in a cube-shaped box and stored at 20° C. (bulk height: 50 cm). Every 14 days, the composition according to the invention was investigated optically and mechanically for its flowability.
I-Menthol (25 kg) in the form of freshly prepared needle-shaped crystals (for the particle distribution, see Example 1) was initially introduced into a mixer and mixed briefly and intensively with various amounts of magnesium oxide (calculated average particle size: 12.8 nm, specific BET surface area: 130 m^2/g, compare Example 1a). The content of magnesium oxide (solid anticaking agent) in the total solids mixture was 0.5 wt. %, 1 wt. %, 2 wt. % or 4 wt. %. The original menthol crystals were comminuted by the mixing operation (compare Example 1a). The menthol-containing solids compositions having various contents of magnesium oxide were each packed in a plastic bag in a cube-shaped box and stored at 20° C. (bulk height: 50 cm). […]

[3] = after 24 hours; cited from earlier work

Time taken for complete dissolving [1] [s]	formation of lumps and caking on storage [2]	SMILES	adhesion and formation of lumps on storage [3]
255		CC(C)[C@@H]1CC[C@@H](C)C[C@H]1O [Crystals of natural menthol, I-menthol]	
170		CC(C)[C@@H]1CC[C@@H](C)C[C@H]1O [Menthol crystals from Example 1, I-menthol]	
280		CC(C)[C@@H]1CC[C@@H](C)C[C@H]1O [Menthol crystals in lump form, obtained by storage of the me] [I-menthol]	
504	gradually form lumps and cake	CC1CCC(C(C)C)C(O)C1 (stereo not drawn) [Menthol]	
		CC(C)[C@@H]1CC[C@@H](C)C[C@H]1O [flaked I-menthol, I-menthol]	adhesion and formation of lumps
